Results published in the RepoRT retention time repository (doi:10.1016/j.scitotenv.2015.08.078).

Experiment: RP, Waters ACQUITY UPLC BEH C18, 100 × 2.1 mm, 1.7 µm, 0.3 mL/min, estimated dead time 0.73 min; A: water + 0.1% formic acid, pH 3; B: methanol + 0.1% formic acid, pH 3; gradient (min/%B) 0/10 14/90 16/90 18/10
Details: stereoisomer not certain

Row | SMILES | LC retention time [min]
1 | C#CC(C)(C)NC(=O)c1cc(Cl)cc(Cl)c1 [Propyzamide] | 10.3
2 | CS(=O)(=O)c1ccc(C(=O)C2C(=O)CCCC2=O)c([N+](=O)[O-])c1 [Mesotrione] | 5.53
3 | NC(=O)NN=Cc1ccc([N+](=O)[O-])o1 [Nitrofurazone] | 2.99
4 | CC(C)(SC(=O)N1CCCCC1)c1ccccc1 [Dimepiperate] | 12.3
5 | CCN(CC)CCOC(=O)c1ccc(N)cc1 [Procaine] | 2.19
6 | Clc1ccc(C2(Cn3cncn3)OCCO2)c(Cl)c1 [Azaconazole] | 9.01
7 | CC#Cc1cc(C)nc(Nc2ccccc2)n1 [Mepanipyrim] | 10.7
8 | CSc1nc(NC(C)C)nc(NC(C)C)n1 [Prometryn] | 10.8
9 | COCCN(C(=O)CCl)c1c(C)cccc1C [Dimethachlor] | 9.39
10 | COP(=O)(OC)SCn1c(=O)oc2cc(Cl)cnc21 [Azamethiphos] | 7.22
11 | CC(C)NC(=O)N1CC(=O)N(c2cc(Cl)cc(Cl)c2)C1=O [Iprodione] | 11.9
12 | CON=C(C(=O)NC1C(=O)N2C(C(=O)[O-])=C(C[n+]3cccc4c3CCCC4)CSC12)c1csc(N)n1 (configuration not stated) [Cefquinome] | 3.4
13 | CCNC(=O)NC(=O)C(C#N)=NOC [Cymoxanil] | 5.24
14 | Cc1cc(C)nc(Nc2ccccc2)n1 [Pyrimethanil] | 9.86
15 | CC(C)(C)Nc1nc(N)[nH]c(=O)n1 [Deethyl-2-hydroxy-terbuthylazine] | 3.24
16 | COCC(=O)N(c1c(C)cccc1C)C(C)C(=O)OC (configuration not stated) [Metalaxyl] | 9.73
17 | COC(=O)C(C)=COP(=S)(OC)OC [Methacrifos] | 9.37
18 | CC(C)NCC(O)COc1cccc2[nH]c3ccccc3c12 (configuration not stated) [Carazolol] | 6.24
19 | COC(=O)Nc1nc2ccc(S(=O)c3ccccc3)cc2[nH]1 (configuration not stated) [Oxfendazole] | 7.31

Row | SMILES | LC retention time [min]
20 | CCOP(=S)(Oc1ccc(C#N)cc1)c1ccccc1 (configuration not stated) [Cyanofenphos] | 11.7
21 | CCOP(=S)(OCC)SCS(=O)(=O)CC [Phorate sulfone] | 8.76
22 | CCOC(=O)CC(SP(=S)(OC)OC)C(=O)OCC (configuration not stated) [Malathion] | 11.6
23 | CC(=O)Nc1ccc(O)cc1 [Acetaminophen] | 2.4
24 | Nc1c(Cl)c(F)nc(OCC(=O)O)c1Cl [Fluroxypyr] | 7.71
25 | CC(=O)c1ccc2c(c1)N(CCCN(C)C)c1ccccc1S2 [Acepromazine] | 8.97
26 | CC1CC2C(C(O)CC3(C)C2CCC3(O)C(=O)CO)C2(C)C=CC(=O)C=C12 (configuration not stated) [6a-Methylprednisolone] | 9.42
27 | Cn1c([N+](=O)[O-])cnc1CO [HMMNI (Hydroxy Dimetridazole)] | 2.23
28 | CCOP(=S)(OCC)Oc1ccc([N+](=O)[O-])cc1 [Parathion] | 11.3
29 | CCCCCC(C)OC(=O)COc1ccc(Cl)c2cccnc12 (configuration not stated) [Cloquintocet - mexyl] | 13
30 | CCc1nc(N)nc(N)c1-c1ccc(Cl)cc1 [Pyrimethamine] | 7.2
31 | CC1(C)C(C=C(Br)Br)C1C(=O)OC(C#N)c1cccc(Oc2ccccc2)c1 (configuration not stated) [Deltamethrin] | 14
32 | CCCCC(C#N)(Cn1cncn1)c1ccc(Cl)cc1 (configuration not stated) [Myclobutanil] | 10.6
33 | COC(=O)c1sccc1S(=O)(=O)NC(=O)Nc1nc(C)nc(OC)n1 [Thifensulfuron methyl] | 5.04
34 | O=C(NC(=O)c1c(F)cccc1F)Nc1cc(Cl)c(F)c(Cl)c1F [Teflubenzuron] | 13
35 | Nc1ccc(Cl)c(Cl)c1 [3.4-dichloroaniline] | 7.98
36 | C=CCN(CC=C)C(=O)C(Cl)Cl [Dichlormid] | 7.52
37 | CCNP(=S)(OC)OC(C)=CC(=O)OC(C)C (configuration not stated) [Propetamphos] | 10.6
